# Measurements taken from US9333272B2, “Fibrin binding peptide conjugates for diagnostic and therapeutic applications” (Bracco Imaging SpA, priority 2006, dated 2016).
# Assays:
# [1] = molecular target: T1, fibrin in tumor, TRAMP prostate tumor (Mus musculus, UniProt E9PV24+Q8K0E8+Q8VCM7); test: In vivo MRI, transgenic adenocarcinoma mouse prostate model (TRAMP), Example 17; conditions: 100 μmol/kg iv; control
# T1 construct: from tissue; host or cells: tumor stroma of living mice (BALB-neuT mammary tumor, TRAMP prostate tumor, Neuro-2a neuroblastoma in A/J mice)
# T1 sequence (E9PV24 20-557 isoform E9PV24-2 limits assumed): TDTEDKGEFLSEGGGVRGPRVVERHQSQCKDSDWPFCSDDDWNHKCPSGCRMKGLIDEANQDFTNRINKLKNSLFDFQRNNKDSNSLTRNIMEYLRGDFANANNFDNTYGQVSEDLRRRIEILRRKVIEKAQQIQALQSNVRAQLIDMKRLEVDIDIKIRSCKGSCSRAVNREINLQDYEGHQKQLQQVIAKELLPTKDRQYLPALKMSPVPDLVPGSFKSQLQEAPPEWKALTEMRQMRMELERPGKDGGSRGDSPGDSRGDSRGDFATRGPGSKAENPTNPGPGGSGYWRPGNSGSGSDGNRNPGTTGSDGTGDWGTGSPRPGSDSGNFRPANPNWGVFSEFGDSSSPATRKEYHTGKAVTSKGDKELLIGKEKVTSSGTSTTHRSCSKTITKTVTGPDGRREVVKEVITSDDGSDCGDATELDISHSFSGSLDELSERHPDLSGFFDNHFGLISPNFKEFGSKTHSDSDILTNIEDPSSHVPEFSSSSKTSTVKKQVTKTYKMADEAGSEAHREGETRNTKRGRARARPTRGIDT
# T1 sequence (Q8K0E8 35-481 limits assumed): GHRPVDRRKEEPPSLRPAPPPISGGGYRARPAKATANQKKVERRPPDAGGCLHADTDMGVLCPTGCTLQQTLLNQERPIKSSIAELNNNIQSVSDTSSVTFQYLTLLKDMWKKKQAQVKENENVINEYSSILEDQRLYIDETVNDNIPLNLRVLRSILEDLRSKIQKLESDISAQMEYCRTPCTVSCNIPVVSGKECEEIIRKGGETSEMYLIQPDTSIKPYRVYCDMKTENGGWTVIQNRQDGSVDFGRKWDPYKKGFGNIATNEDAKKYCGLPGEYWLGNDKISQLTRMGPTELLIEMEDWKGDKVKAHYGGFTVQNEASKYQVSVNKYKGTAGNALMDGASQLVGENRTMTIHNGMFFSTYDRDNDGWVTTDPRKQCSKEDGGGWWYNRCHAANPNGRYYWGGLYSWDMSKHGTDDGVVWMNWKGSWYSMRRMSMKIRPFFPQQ
# T1 sequence (Q8VCM7 26-436): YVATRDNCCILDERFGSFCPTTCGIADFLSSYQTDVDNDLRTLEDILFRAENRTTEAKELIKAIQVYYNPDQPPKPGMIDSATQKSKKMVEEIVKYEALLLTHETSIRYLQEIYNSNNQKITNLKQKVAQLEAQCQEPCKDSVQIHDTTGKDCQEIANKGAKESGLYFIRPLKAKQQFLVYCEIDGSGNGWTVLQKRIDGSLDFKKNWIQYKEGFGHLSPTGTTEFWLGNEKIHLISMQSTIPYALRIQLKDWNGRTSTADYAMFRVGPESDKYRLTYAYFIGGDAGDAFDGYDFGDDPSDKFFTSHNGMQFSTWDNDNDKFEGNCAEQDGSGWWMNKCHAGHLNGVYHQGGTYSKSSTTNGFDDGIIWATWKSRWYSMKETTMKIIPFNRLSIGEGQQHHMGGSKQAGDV
# Method: This test has been performed in a transgenic adenocarcinoma mouse prostate model (TRAMP) developed by introducing a PB promoter—SV40 T antigen fusion transgene (PB-Tag) into the germ line of C57BL/6 inbred mice.
# Two TRAMP mice were treated with ProHance® at 100 μmol/kg iv (control), and the day after with Chelate Complex 2 or with Chelate Complex 5 at 25 μmol/kg iv. T1 weighted SE images were acquired pre- and post-contrast injection and the kinetic of enhancement in the tumor was followed up to 3 h post-test compound administration.
# [2] = molecular target: T2, fibrin in tumor, mammary tumor mouse model (BALB-neuT) (Mus musculus, UniProt E9PV24+Q8K0E8+Q8VCM7); test: In vivo MRI, mammary tumor mouse model (BALB-neuT), Example 16; conditions: 100 μmol/kg; reference compound
# T2 construct: from tissue; host or cells: tumor stroma of living mice (BALB-neuT mammary tumor, TRAMP prostate tumor, Neuro-2a neuroblastoma in A/J mice)
# T2 sequence (E9PV24 20-557 isoform E9PV24-2 limits assumed): T1 sequence (E9PV24 20-557 isoform E9PV24-2 limits assumed)
# T2 sequence (Q8K0E8 35-481 limits assumed): T1 sequence (Q8K0E8 35-481 limits assumed)
# T2 sequence (Q8VCM7 26-436): T1 sequence (Q8VCM7 26-436)
# Method: The test has been performed in a mammary tumor mouse model (BALB-neuT). Mice were treated with Chelate Complex 2 of the invention, 25 μmol/kg, injected iv, and with ProHance® at 100 μmol/kg. Signal enhancement of the tumor was followed up to 3 h after contrast administration.
# Successive T1 weighted SE images were acquired pre- and post-injection of the test compounds and some examples are reported in FIGS. 6 and 7. Images are related to successive slices from the same mouse acquired at different time points post contrast. In particular, FIG. 6 includes images post-injection of chelate Complex 2 at 25 μmol/kg (arrows indicate tumor) and FIG. 7 includes analogous images post administration of ProHance®.
smiles,measurement,setting,value
CC(O)CN1CCN(CC(=O)[O-])CCN(CC(=O)[O-])CCN(CC(=O)[O-])CC1.[Gd+3] (centres unmarked) [ProHance®],"Tumor signal enhancement (T1 weighted MRI), in words",[1],very weak signal enhancement
same,"Tumor signal enhancement (T1 weighted MRI), in words",[2],signal distribution only on the border and no signal enhancement inside the tumors after 55 min
